Patent publication US9725449B2, “Tricyclic compounds as anticancer agents” (BRISTOL-MYERS SQUIBB COMPANY, priority 2015, dated 2017)

What follows are molecules tested against BRD4 (Homo sapiens, UniProt O60885) (assay: Time resolved fluorescence resonance energy transfer (TR-FRET) binding assay, bromodomain BRD4). Details: FRET BRD4 IC50 (nM), one of the FRET assays described.

`[2H]C([2H])([2H])c1nnn(C)c1-c1cnc2c3ccc(N4C5CCC4CC(O)C5)nc3n([C@H](c3ccccc3)C3CCOCC3)c2c1` (stereo partly drawn) [Example 183, 8-{5-[4-(^2H3)Methyl-1-methyl-1H-1,2,3-triazol-5-yl]-8-[(S)-oxan-4-yl(phenyl)methyl]-3,8,10-triazatricyclo[7.4.0.0^2,^7]trideca-1(9),2(7),3,5,10,12-hexaen-11-yl}-8-azabicyclo[3.2.1]octan-3-ol] was tested, and the IC50 was < 10 nM.

Same assay, conditions: one of the FRET assays described; read-out: FRET BRD4 IC50

“2-{13-Methoxy-5-[4-(^2H3)methyl-1-methyl-1H-1,2,3-triazol-5-yl]-8-[(S)-oxan-4-yl(phenyl)methyl]-3,8,12-triazatricyclo[7.4.0.0^2,^7]trideca-1(13),2(7),3,5,9,11-hexaen-11-yl}propan-2-ol [Example 344]” and `[2H]C([2H])([2H])c1nnn(C)c1-c1cnc2c3cnc(-c4c(C([2H])([2H])[2H])nnn4C)cc3n([C@H](c3ccccc3)C3CCOCC3)c2c1` [Example 168, 5,11-Bis[4-(^2H3)methyl-1-methyl-1H-1,2,3-triazol-5-yl]-8-[(S)-oxan-4-yl(phenyl)methyl]-3,8,12-triazatricyclo[7.4.0.0^2,^7]trideca-1(9),2(7),3,5,10,12-hexaene] cannot be ordered by IC50: < 10 nM for the first, < 1 nM for the second.

`[2H]C([2H])([2H])c1nnn(C)c1-c1cnc2c3c(OCC4CCCO4)ncc(S(C)(=O)=O)c3n([C@H](c3ccccc3)C3CCOCC3)c2c1` (stereo partly drawn) [Example 110, 10-Methanesulfonyl-5-[4-(^2H3)methyl-1-methyl-1H-1,2,3-triazol-5-yl]-8-[(S)-oxan-4-yl(phenyl)methyl]-13-[(2S)-oxolan-2-ylmethoxy]-3,8,12-triazatricyclo[7.4.0.0^2,^7]trideca-1(13),2(7),3,5,9,11-hexaene] and `[2H]C([2H])([2H])c1nnn(C)c1-c1cnc2c3c(OC)nc(C(C)(C)O)cc3n(C(c3ccccc3)C3CCC(F)(F)CC3)c2c1` (stereo not drawn) [Example 345, 2-{8-[(4,4-Difluorocyclohexyl)(phenyl)methyl]-13-methoxy-5-[4-(^2H3)methyl-1-methyl-1H-1,2,3-triazol-5-yl]-3,8,12-triazatricyclo[7.4.0.0^2,^7]trideca-1(13),2(7),3,5,9,11-hexaen-11-yl}propan-2-ol] cannot be ordered by IC50: < 10 nM for the first, < 1 nM for the second.

`COc1ccc2c3ncc(-c4c(C)nnn4C)cc3n([C@H](c3ccccc3)C3CCOCC3)c2n1` [Example 12, 5-(Dimethyl-1H-1,2,3-triazol-5-yl)-11-methoxy-8-[(S)-oxan-4-yl(phenyl)methyl]-3,8,10-triazatricyclo[7.4.0.0^2,^7]trideca-1(13),2(7),3,5,9,11-hexaene] and `[2H]C([2H])([2H])c1nnn(C)c1-c1cnc2c3ccc(Cl)nc3n(C(c3ncccc3F)C3CCOCC3)c2c1` (stereo not drawn) [Example 246, 11-Chloro-8-[(3-fluoropyridin-2-yl)(oxan-4-yl)methyl]-5-[4-(^2H3)methyl-1-methyl-1H-1,2,3-triazol-5-yl]-3,8,10-triazatricyclo[7.4.0.0^2,^7]trideca-1(13),2(7),3,5,9,11-hexaene] cannot be ordered by IC50: < 10 nM for the first, < 10 nM for the second.

`[2H]C([2H])([2H])c1nnn(C)c1-c1cnc2c3c(OC)ncc(S(C)(=O)=O)c3n(C(c3c(F)cc(F)cc3F)C3CCOCC3)c2c1` (single isomer, unassigned) [Example 83, 10-Methanesulfonyl-13-methoxy-5-[4-(^2H3)methyl-1-methyl-1H-1,2,3-triazol-5-yl]-8-[oxan-4-yl(2,4,6-trifluorophenyl)methyl]-3,8,12-triazatricyclo[7.4.0.0^2,^7]trideca-1(13),2(7),3,5,9,11-hexaene] and `[2H]C([2H])([2H])c1nnn(C)c1-c1cnc2c3c(OCC)ncc(S(C)(=O)=O)c3n([C@H](c3ccccc3)C3CCOCC3)c2c1` [Example 56, 13-Ethoxy-10-methanesulfonyl-5-[4-(^2H3)methyl-1-methyl-1H-1,2,3-triazol-5-yl]-8-[(S)-oxan-4-yl(phenyl)methyl]-3,8,12-triazatricyclo[7.4.0.0^2,^7]trideca-1(13),2(7),3,5,9,11-hexaene] cannot be ordered by IC50: < 1 nM for the first, < 1 nM for the second.

`[2H]C([2H])([2H])c1nnn(C)c1-c1cnc2c3c(OC)ncc(C(C)(C)O)c3n([C@H](c3ccccc3)C3CCOCC3)c2c1` [Example 138, 2-{13-Methoxy-5-[4-(^2H3)methyl-1-methyl-1H-1,2,3-triazol-5-yl]-8-[(S)-oxan-4-yl(phenyl)methyl]-3,8,12-triazatricyclo[7.4.0.0^2,^7]trideca-1(13),2(7),3,5,9,11-hexaen-10-yl}propan-2-ol] and `Cc1nnn(C)c1-c1cnc2c3ccc(N4CC(O)C4)nc3n([C@H](c3ccccc3)C3CCOCC3)c2c1` [Example 179, 1-[5-(Dimethyl-1H-1,2,3-triazol-5-yl)-8-[(S)-oxan-4-yl(phenyl)methyl]-3,8,10-triazatricyclo[7.4.0.0^2,^7]trideca-1(9),2(7),3,5,10,12-hexaen-11-yl]azetidin-3-ol] cannot be ordered by IC50: < 10 nM for the first, < 1 nM for the second.

`[2H]C([2H])([2H])c1onc(C)c1-c1cnc2c3c(OC)ncc(S(C)(=O)=O)c3n([C@H](c3ccccc3)C3CCOCC3)c2c1` [Example 60, 10-Methanesulfonyl-13-methoxy-5-[5-(^2H3)methyl-3-methyl-1,2-oxazol-4-yl]-8-[(S)-oxan-4-yl(phenyl)methyl]-3,8,12-triazatricyclo[7.4.0.0^2,^7]trideca-1(13),2(7),3,5,9,11-hexaene] and `[2H]C([2H])([2H])c1nnn(C)c1-c1cnc2c3cnc(C(C)(C)O)cc3n(C(CCC)c3ncccc3F)c2c1` (stereo not drawn) [Example 360, 2-{8-[1-(3-Fluoropyridin-2-yl)butyl]-5-[4-(^2H3)methyl-1-methyl-1H-1,2,3-triazol-5-yl]-3,8,12-triazatricyclo[7.4.0.0^2,^7]trideca-1(13),2(7),3,5,9,11-hexaen-11-yl}propan-2-ol] cannot be ordered by IC50: < 1 nM for the first, < 10 nM for the second.

`[2H]C([2H])([2H])c1nnn(C)c1-c1cnc2c3cc(C(C)(C)O)cnc3n([C@H](c3ncccc3F)C3CCOCC3)c2c1` [Example 352, 2-{8-[(S)-(3-Fluoropyridin-2-yl)(oxan-4-yl)methyl]-5-[4-(^2H3)methyl-1-methyl-1H-1,2,3-triazol-5-yl]-3,8,10-triazatricyclo[7.4.0.0^2,^7]trideca-1(13),2(7),3,5,9,11-hexaen-12-yl}propan-2-ol] and “2-{8-[(3-Fluoropyridin-2-yl)(oxan-4-yl)methyl]-11-[4-(^2H3)methyl-1-methyl-1H-1,2,3-triazol-5-yl]-3,8,10-triazatricyclo[7.4.0.0^2,^7]trideca-1(9),2,4,6,10,12-hexaen-5-yl}propan-2-ol [Example 363]” cannot be ordered by IC50: < 10 nM for the first, < 1 nM for the second.

`[2H]C([2H])([2H])C(C)(O)c1ccc2c3ncc(-c4c(C)nnn4C)cc3n([C@H](c3ccccc3)C3CCOCC3)c2n1` (stereo partly drawn) [Example 177, 2-[5-(Dimethyl-1H-1,2,3-triazol-5-yl)-8-[(S)-oxan-4-yl(phenyl)methyl]-3,8,10-triazatricyclo[7.4.0.0^2,^7]trideca-1(9),2(7),3,5,10,12-hexaen-11-yl](1,1,1-^2H3)propan-2-ol] and `Cc1noc(C)c1-c1cnc2c3ccc(S(C)(=O)=O)nc3n([C@H](c3ccccc3F)C3CCOCC3)c2c1` [Example 222, 5-(Dimethyl-1,2-oxazol-4-yl)-8-[(S)-(2-fluorophenyl)(oxan-4-yl)methyl]-11-methanesulfonyl-3,8,10-triazatricyclo[7.4.0.0^2,^7]trideca-1(13),2(7),3,5,9,11-hexaene] cannot be ordered by IC50: < 1 nM for the first, < 10 nM for the second.

`Cc1nnn(C)c1-c1cnc2c3ccc(N4CCN(C)CC4)nc3n([C@H](c3ccccc3F)C3CCOCC3)c2c1` [Example 231, 5-(Dimethyl-1H-1,2,3-triazol-5-yl)-8-[(S)-(2-fluorophenyl)(oxan-4-yl)methyl]-11-(4-methylpiperazin-1-yl)-3,8,10-triazatricyclo[7.4.0.0^2,^7]trideca-1(13),2(7),3,5,9,11-hexaene] and `Cc1nnn(C)c1-c1cnc2c3c(S(C)(=O)=O)nccc3n([C@H](c3ccccc3)C3CCOCC3)c2c1` [Example 33, 5-(Dimethyl-1H-1,2,3-triazol-5-yl)-13-methanesulfonyl-8-[(S)-oxan-4-yl(phenyl)methyl]-3,8,12-triazatricyclo[7.4.0.0^2,^7]trideca-1(13),2(7),3,5,9,11-hexaene] cannot be ordered by IC50: < 10 nM for the first, < 1 nM for the second.

`[2H]C([2H])([2H])c1nnn(C)c1-c1cnc2c3c(OC)nc(S(C)(=O)=O)cc3n([C@H](c3ccccc3)C3CCOCC3)c2c1` [Example 342, 11-Methanesulfonyl-13-methoxy-5-[4-(^2H3)methyl-1-methyl-1H-1,2,3-triazol-5-yl]-8-[(S)-oxan-4-yl(phenyl)methyl]-3,8,12-triazatricyclo[7.4.0.0^2,^7]trideca-1(13),2(7),3,5,9,11-hexaene] and `[2H]C([2H])([2H])c1nnn(C)c1-c1cnc2c3c(OC(C)C)ncc(S(C)(=O)=O)c3n(C(c3ncccc3F)C3CCOCC3)c2c1` (stereo not drawn) [Example 71, 8-[(3-Fluoropyridin-2-yl)(oxan-4-yl)methyl]-10-methanesulfonyl-5-[4-(^2H3)methyl-1-methyl-1H-1,2,3-triazol-5-yl]-13-(propan-2-yloxy)-3,8,12-triazatricyclo[7.4.0.0^2,^7]trideca-1(13),2(7),3,5,9,11-hexaene] cannot be ordered by IC50: < 10 nM for the first, < 1500 nM for the second.

`[2H]C([2H])([2H])c1nnn(C)c1-c1cnc2c3c(OC)ncc(CO)c3n([C@H](c3ccccc3)C3CCOCC3)c2c1` [Example 139, {13-methoxy-5-[4-(^2H3)methyl-1-methyl-1H-1,2,3-triazol-5-yl]-8-[(S)-oxan-4-yl(phenyl)methyl]-3,8,12-triazatricyclo[7.4.0.0^2,^7]trideca-1(9),2,4,6,10,12-hexaen-10-yl}methanol] and “2-{8-[(3-Fluoropyridin-2-yl)(oxan-4-yl)methyl]-11-[4-(^2H3)methyl-1-methyl-1H-1,2,3-triazol-5-yl]-3,8,10-triazatricyclo[7.4.0.0^2,^7]trideca-1(9),2,4,6,10,12-hexaen-5-yl}propan-2-ol [Example 362]” cannot be ordered by IC50: < 10 nM for the first, < 10 nM for the second.

For `CCN(CCN(C)C)c1ccc2c3ncc(-c4c(OC)nnn4C)cc3n([C@H](c3ccccc3F)C3CCOCC3)c2n1` [Example 257, N-[2-(Dimethylamino)ethyl]-N-ethyl-8-[(S)-(2-fluorophenyl)(oxan-4-yl)methyl]-5-(4-methoxy-1-methyl-1H-1,2,3-triazol-5-yl)-3,8,10-triazatricyclo[7.4.0.0^2,^7]trideca-1(13),2(7),3,5,9,11-hexaen-11-amine], the IC50 was < 1 nM.
